Assay results published in patent US20100305174A1, “Novel Heterocyclic Derivatives” (ORCHID RESEARCH LABORATORIES LIMITED, priority 2005, published 2010).
Read-outs that look alike come from different tables or passages of the source.

Assays:
DPP IV = molecular target: T1, DPP IV (Homo sapiens, UniProt P27487); assay: DPP IV assay (human plasma as source, H-gly-pro AMC substrate); format: biochemical; conditions: compared to vehicle control
T1 construct: using human plasma as a source of DPP IV; from tissue; host or cells: human plasma
Description: DPP IV assay is carried by using human plasma as a source of DPP IV. The compounds were incubated at a concentration of 1 and 10 μM in assay buffer containing DPP IV enzyme. The compounds were incubated for 1 hr and then the substrate H-gly-pro AMC was added and further incubated for 20 min and then the reaction was stopped on addition of 25% glacial acetic acid. The plates were read in a spectrofluorimeter to get RFU on setting excitation wavelength of 360 nm and emission wavelength of 460 nm. Percentage inhibition is calculated as compared to vehicle control.

TNF-α = TNF-α inhibition in LPS-challenged human PBMC; format: cell-based; conditions: Homo sapiens, PBMC, LPS 100 ng/mL, 20 hours, read-out: % Inhibition TNF alpha
Description: (§1) Human PBMC cells were cultured and incubated with compounds listed in table-4 at 1 and 10 μM concentrations. Cells (1×10^6/mL) were challenged with lipopolysaccharides (LPS) at a concentration of (100 ng/mL) for 20 hours. Cell supernatant was analyzed for the presence of TNF-α, IL-1β and IL-6 cytokines by antibody directed enzyme-linked immunoassay.

IL-1β = IL-1β inhibition in LPS-challenged human PBMC; format: cell-based; conditions: Homo sapiens, PBMC; 10 μM, LPS 100 ng/mL, 20 hours; read-out: % Inhibition IL1beta
Description: as §1

MCF-7 = assay: Inhibition of breast cancer cell growth (MTS); format: cell-based; conditions: 10 μM, six days, MTS viability
Description: MCF-7 is a breast cancer cell line and they were grown in 96 well plates at 1000 cells/well. The cells were pretreated with compounds mentioned in FIG. 2 at 10 μM concentration or taxol at 1 and 2.5 μM concentration or DMSO for six consecutive days. Every 48 hrs they were stained with MTS dye and viability was checked accordingly.

HT-29 = assay: Inhibition of colon cancer cell growth (MTS); format: cell-based; conditions: 10 μM, six days, MTS viability
Description: HT-29 is a colon cancer cell line and they were grown in 96 well plates with seeding concentration of 1000 cells/well. The cells were pretreated with compounds mentioned in FIG. 3 at 10 μM concentrations or taxol at 1 and 2.5 μM concentration or DMSO for six consecutive days. Every 48 hrs they were stained with MTS dye and viability was checked accordingly.

3T3-L1 cells = assay: Glucose uptake assay using 3T3-L1 cells; format: cell-based; conditions: statement in words, table-1 assay
Description: 3T3-L1 cells were differentiated by the addition of differentiation cocktail (72 μg/ml insulin, 0.5 mM IBMX, 400 ng/ml Dexamethasone) for 4 days and later fed with media without differentation cocktail for 7-8 days. After differentiation the cells were incubated with the either reference compound BLX-1002 or compounds listed in the table 1 at 1 μM concentrations for 72 hours and carried out the glucose uptake assay for 10 min by the addition of KRP buffer supplemented with 2.5 μCi/ml ^14C deoxy glucose. Stimulation Index is defined as the amount of ^14C Deoxyglucose uptake induced by 1 μM of BLX-1002 incubated for 72 hrs in an assay condition as per protocol described above with differentiated 3T3-L1 adipocytes. Values of compounds mentioned in table-1 are with reference to stimulation index of reference compound BLX-1002.

3T3-L1 fibroblasts = assay: Adipogenesis assay in 3T3-L1 (Oil-red-O staining); format: cell-based
Description: All known PPARγ agonists induce differentiation in fibroblast cells. The adipogenic potential of these compounds is correlated with their affinity to this receptor. To check quickly the affinity of compounds to these receptors, 3T3-L1 fibroblasts were treated with either DMSO control or rosiglitazone as positive control or the compounds at 1 μM concentration for several days. On day 13th, the differentiated adipocytes were stained with Oil-red-O (Sigma) and washed thoroughly to remove unbound stain and visualized under Olympus microscope. […] This is an indirect proof that example 78 have no affinity to PPARγ receptor.

[1] = test system: streptozotocin induced diabetic mice; assay: Antidiabetic activity in streptozotocin induced diabetic mice; format: in vivo, Swiss albino mice; conditions: Mus musculus, 168 h, 50 mg/kg oral, 7 days, plasma, compared to control group
Description: Swiss albino mice of either sex were used in the study at the age of 10 weeks. Diabetes was induced in animals by injecting streptozotocin by i.p. route at a dose of 200 mg/kg body weight. 48 hours after streptozotocin administration, the animals were kept for fasting for 6 hours and blood was collected and plasma separated and glucose was estimated. Animals showing greater than 200 mg/dl glucose levels were considered as diabetic and these animals were randomly distributed into various groups. The compounds listed in the table 3 were administered at a dose of 50 mg/kg body weight by oral route for 7 days. Later animals were fasted for 6 hours and blood was collected and plasma separated. Biochemical estimations like glucose, cholesterol and triglycerides were carried out using the plasma. The effect of compounds mentioned in the table was expressed in terms of percentage reduction in biochemical values as compared to control group.

T1 sequence (P27487 39-766 limits assumed): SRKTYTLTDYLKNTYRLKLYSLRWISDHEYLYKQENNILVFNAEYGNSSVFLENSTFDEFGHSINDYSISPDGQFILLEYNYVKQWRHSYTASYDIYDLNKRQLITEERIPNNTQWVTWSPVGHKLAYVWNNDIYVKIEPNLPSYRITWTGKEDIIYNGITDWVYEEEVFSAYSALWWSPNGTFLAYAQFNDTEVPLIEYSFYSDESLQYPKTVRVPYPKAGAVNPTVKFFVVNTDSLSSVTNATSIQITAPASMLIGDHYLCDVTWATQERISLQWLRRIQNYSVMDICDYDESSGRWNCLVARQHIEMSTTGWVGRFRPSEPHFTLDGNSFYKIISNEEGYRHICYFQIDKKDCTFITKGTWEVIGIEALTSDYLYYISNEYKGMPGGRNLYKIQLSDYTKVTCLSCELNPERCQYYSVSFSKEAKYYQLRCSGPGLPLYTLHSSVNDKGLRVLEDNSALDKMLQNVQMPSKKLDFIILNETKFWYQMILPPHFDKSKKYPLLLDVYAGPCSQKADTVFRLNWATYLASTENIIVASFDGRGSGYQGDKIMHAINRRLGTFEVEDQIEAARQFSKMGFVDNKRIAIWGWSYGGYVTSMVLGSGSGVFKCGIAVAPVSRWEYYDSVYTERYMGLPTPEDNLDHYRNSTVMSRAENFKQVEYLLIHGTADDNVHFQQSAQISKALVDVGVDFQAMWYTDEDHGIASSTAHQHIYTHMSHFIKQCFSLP

Structure (SMILES): CN1C(=O)OCC1Cc1ccc(Oc2ccc(/C=C3\C(=O)Nc4ccccc43)cc2C(F)(F)F)cc1 (centres unmarked) [Example 14]
- inhibition at 1 µM (DPP IV; 1 μM): 4.64%
- inhibition at 10 µM (DPP IV; 10 μM): 7.42%
- inhibition at 1 µM (TNF-α; 1 μM): 15.9%
- inhibition at 10 µM (TNF-α; 10 μM): 25.4%
- inhibition at 10 µM (IL-1β): 32.1%
- inhibition of breast cancer cell growth (MCF-7): strong inhibitor
- inhibition of colon cancer cell growth (HT-29): strong inhibitor

Structure (SMILES): CCN1C(=O)OCC1Cc1ccc(Oc2ccc(CC3SC(=S)NC3=O)cc2)cc1 (centres unmarked) [Example 78, 3-ethyl-4-(4-{4-[(4-oxo-2-thioxo-1,3-thiazolidin-5-yl)methyl]phenoxy}benzyl)-1,3-oxazolidin-2-one]
- glucose uptake activity (3T3-L1 cells): good glucose uptake activity
- adipogenesis (Oil-red-O staining) (3T3-L1 fibroblasts; 1 μM, stained on day 13): remained unchanged
- adipogenesis DRC, Oil-red-O staining (3T3-L1 fibroblasts; at tested concentrations): did not show significant staining
- affinity to PPARγ receptor (3T3-L1 fibroblasts; indirect proof from adipogenesis assay): no affinity
- inhibition in vivo at 50 mg/kg ([1]; read-out: % Reduction Cholesterol): 59%
- inhibition in vivo at 50 mg/kg ([1]; read-out: % Reduction Glucose): 45.4%
- inhibition in vivo at 50 mg/kg ([1]; read-out: % Reduction Triglycerides): 44.2%
